Measurements published in patent publication US20030087308A1, “Method for high through put screening using a small scale mill or microfluidics” (Elan Pharma International Limited, priority 2001, published 2003).
Like-named read-outs stand apart in the source and are kept apart here.

Assays:
[1] = Particle size of nanoparticle suspension after small scale high energy milling (microscopy, laser light diffraction); format: physicochemical
[2] = PVP K29/32 and SLS 5:2:0.05, 6000 rpm
Description: The mixture was milled in a NanoMill™ (Elan Drug Delivery, Inc.). Using a media load of 100% at the maximum rpm of 6000 maximized the energy input.
Further calculations were based on a bulk density of 0.61 g/ml for PolyMill™ 500 μ media (Dow Chemical) and a void volume of 40%. Since the amounts were low and mixing difficult, PVP and SLS were prepared as 20% and 5% stock solutions, respectively. The calculations for milling in a 10 mL, 18 mL, and 26 mL milling chambers are summarized in the following chart: […]

[3] = Quality of milled dispersion by photomicrography; format: physicochemical
Description: Analysis of resultant particle size was via photomicrography.
[…] The composition was then milled in a 10 mL chamber of a NanoMill™.

[4] = 10 mL chamber, 25 mg naproxen, after 1 hr

Row | Particle Size ([1]; 50 mg milled, 15 min milling time) | Particle Size ([1]; 200 mg milled, 60 min milling time) | mean diameter of nanoparticle suspension ([1]; <50 mg of drug milled 15 min, small-volume high energy mill, unimodal distribution) | mean particle size (bimodal peak) [2, 4] | median particle size (bimodal peak) [2, 4] | single peak mean particle size ([2]; 18 mL chamber, 45 mg naproxen) | single peak mean particle size ([2]; 26 mL chamber, 65 mg naproxen) | dispersion quality ([3]; 5 mg, 10 mL chamber, PVP K29/32 and SLS 5:2:0.05) | dispersion quality ([3]; 25 mg, 10 mL chamber, 15 min) | dispersion quality ([3]; 25 mg, 18 mL chamber, 15 min) | dispersion quality ([3]; 25 mg, 18 mL chamber, 30 min) | dispersion quality ([3]; 25 mg, 26 mL chamber, 5 min) | dispersion quality ([3]; 25 mg, 26 mL chamber, 15 min) | resultant particle size ([3]; 10 mg, Pluronic F-108 at 5:2, 10 mL chamber, 5 to 30 min) | Compound
1 | 159 nm | 147 nm | less than 200 nm | 1496 nm | 354 nm | 314 nm | 630 nm | well dispersed nano-suspension | reasonable naproxen dispersion | reasonable naproxen dispersion | over-milled and aggregated | excellent homogeneity | clearly degenerating | – | COc1ccc2cc([C@H](C)C(=O)O)ccc2c1 [Naproxen]
2 | – | – | – | – | – | – | – | – | – | – | – | – | – | predominantly sub-micron | CCOC(=O)CCCCCOC(=O)c1c(I)c(NC(C)=O)c(I)c(NC(C)=O)c1I [Photogen, 6-ethoxy-6-oxohexyl-3,5-bis(acetamido)-2,4,6-triiodobenzoate]
